Converted amounts (≈) assume the structure as drawn.
Key:
E. coli J53 = assay: MIC by agar dilution, recipient E. coli J53; assay type: cell-based; settings: Escherichia coli
Protocol: (§1) Antimicrobial susceptibility testing was performed and interpreted according to the Clinical and Laboratory Standards Institute (CLSI) guidelines and breakpoints (M100, 31st edition) by the agar dilution method. E. coli ATCC 25922 and K. pneumoniae ATCC 700603 served as control strains.
(§2) The antibiotics we used included meropenem (Hanhui Pharmaceutical Co., Ltd., China), imipenem (Merck Sharp & Dohme Corp., USA), cefepime (Jiangsu Hengrui Pharmaceutical Co., Ltd., China), piperacillin (Suzhou Erye Pharmaceutical Co., Ltd., China), ceftazidime (Guangdong Jincheng Jinsu Pharmaceutical Co., Ltd., China), tazobactam (Meilunbio, China), avibactam (MedChemExpress, USA), aztreonam (Sigma-Aldrich, USA), amikacin (Meilunbio), cefuroxime (Esseti Farmaceutici S.r.l., Italy), fosfomycin (Harbin Pharmaceutical Group Co., Ltd. China), levofloxacin (Daiichi Sankyo Company Limited, Beijing, China), and cefotaxime (North China Pharmaceutical Hebei Huamin Pharmaceutical Co., Ltd., China).
(§3) Conjugation experiments were performed by filter mating using sodium-azide-resistant E. coli J53 as the recipient, as described previously. Transconjugants were selected with MH agar containing 100 μg/mL sodium azide and 4 μg/mL ceftazidime-avibactam; furthermore, transconjugants were named J53-AR13438 and J53-KPCZA02, respectively. We compared genomes of AR13438 and J53 to select a unique gene (gtrA) to J53. The blaCMY-178-postive transconjugants were confirmed by PCR and MALDI-TOF MS (see Fig. S9 in the supplemental material). The primers used for PCR were gtrA-F, gtrA-R, CMY-F, and CMY-R (Table S1). The transfer frequencies were calculated as the number of transconjugants (CFU/mL) divided by the number of recipients (CFU/mL). Donors and recipients were mixed at 1:1 for the transfer frequency experiment. S1-PFGE and Southern blotting were performed to define the location of blaCMY-178 and confirm the transmission of the plasmid as described previously ([35]). The MIC profiles of transconjugants were also determined by the agar dilution method.

E. coli J53-AR13438 = assay: MIC by agar dilution, conjugant containing pAR13438_2; assay type: cell-based; settings: Escherichia coli, J53AR13438, E. coli J53-AR13438 (blaCMY-178)
Protocol: as §1
as §3, with “The blaCMY-178-postive transconjugants were confirmed by PCR and MALDI-TOF MS (see Fig. S9 in the supplemental material).” left out

E. coli J53-KPCZA02 = assay: MIC by agar dilution, conjugant containing pKPCZA02_4; assay type: cell-based; settings: Escherichia coli, J53KPCZA02, E. coli J53-KPCZA02 (blaCMY-172)
Protocol: as §1
as §3, with “The blaCMY-178-postive transconjugants were confirmed by PCR and MALDI-TOF MS (see Fig. S9 in the supplemental material).” left out

E. coli DH5α = assay: MIC by agar dilution, E. coli DH5α; assay type: cell-based; settings: Escherichia coli
Protocol: as §1, §2

[1] = tested on: E. coli DH5α-pCR2.1-CMY-178; assay: MIC by agar dilution, transformant containing blaCMY-178; assay type: cell-based, Escherichia coli; settings: for MIC: Escherichia coli, E. coli DH5α-pCR2.1-CMY-178, agar dilution; for Increase of MIC by blaCMY-178 compared with blaCMY-172: transformants in E. coli DH5α
Protocol: as §1, §2
(§4) The blaCMY cloning was performed using a TA cloning kit (Invitrogen, Shanghai, China). The blaCMY-178 gene combined with its predicted promoter was amplified from isolate AR13438. Then, the blaCMY-178 gene was cloned into the linearized vector pCR2.1 using T4 DNA ligase (Invitrogen). The blaCMY-172 gene was cloned from KPCZA02 with the same method. The resulting plasmids were chemically transformed into E. coli DH5α. The positive transformants were identified by blue-white screening in MH agar containing 50 μg/mL kanamycin and were further confirmed by Sanger sequencing. The pCR2.1 blank vector was also transformed into E. coli DH5α as a control. The primers used for cloning were CMY-F and CMY-R (see Table S2 in the supplemental material). Relative CMY expression was measured by reverse transcription-quantitative PCR as described previously ([34]). Specific quantitative PCR (qPCR) primers (q-recA-F/R and q-CMY-F/R) were designed (Table S2).

[2] = tested on: E. coli DH5α-pCR2.1-CMY-2; assay: MIC by agar dilution, transformant containing blaCMY-2; assay type: cell-based; settings: Escherichia coli
[3] = tested on: E. coli DH5α-pCR2.1-CMY-172; assay: MIC by agar dilution, transformant containing blaCMY-172; assay type: cell-based; settings: Escherichia coli
Protocol: as §1, §2, §4

E. coli DH5α-pCR2.1 = assay: MIC by agar dilution, DH5α with blank vector pCR2.1; assay type: cell-based; settings: Escherichia coli
Protocol: as §1, §2, §4

E. coli strain AR13438 = assay: MIC by agar dilution, clinical isolate AR13438; assay type: cell-based, Escherichia coli; settings: for MIC: Escherichia coli, AR13438, clinical E. coli isolate (blaCMY-178, blaTEM-1, blaCTX-M-27), agar dilution; for Antimicrobial susceptibility category: AR13438, CLSI breakpoints (M100, 31st edition)
Protocol: as §1, §2

[4] = tested on: K. pneumoniae isolate KPCZA02; assay: microbe, parasite or virus in culture; assay type: cell-based; settings: Klebsiella pneumoniae
Protocol: as §1

| Compound | MIC (E. coli J53) | MIC (E. coli J53-AR13438) | MIC (E. coli J53-KPCZA02) | MIC (E. coli DH5α) | MIC [1] | Increase of MIC by blaCMY-178 compared with blaCMY-172 [1] | MIC [2] | MIC [3] | MIC (E. coli DH5α-pCR2.1) | MIC (E. coli strain AR13438) | MIC [4] | Antimicrobial susceptibility category (E. coli strain AR13438) |
| --- | --- | --- | --- | --- | --- | --- | --- | --- | --- | --- | --- | --- |
| CO/N=C(\C(=O)N[C@@H]1C(=O)N2C(C(=O)O)=C(COC(N)=O)CS[C@H]12)c1ccco1 [CXM, cefuroxime] | 16 µg/mL (≈ 37.7 µM) | 256 µg/mL (≈ 603 µM) | 256 µg/mL (≈ 603 µM) | 4 µg/mL (≈ 9.43 µM) | 1020 µg/mL (≈ 2410 µM) | over 4 fold | 128 µg/mL (≈ 302 µM) | 64 µg/mL (≈ 151 µM) | 4 µg/mL (≈ 9.43 µM) | > 1020 µg/mL | > 1020 µg/mL | – |
| CC(C)(O/N=C(\C(=O)N[C@@H]1C(=O)N2C(C(=O)[O-])=C(C[N+]3(CCNC(=O)c4ccc(O)c(O)c4Cl)CCCC3)CS[C@H]12)c1csc(N)n1)C(=O)O [CFDC, cefiderocol] | – | – | – | < 0.03 µg/mL | 1 µg/mL (≈ 1.33 µM) | – | 0.125 µg/mL (≈ 0.166 µM) | 1 µg/mL (≈ 1.33 µM) | < 0.03 µg/mL | 0.25 µg/mL (≈ 0.332 µM) | 1 µg/mL (≈ 1.33 µM) | susceptible |
| C[C@H]1COc2c(N3CCN(C)CC3)c(F)cc3c(=O)c(C(=O)O)cn1c23 [LEV, levofloxacin] | 0.03 µg/mL (≈ 0.083 µM) | 0.03 µg/mL (≈ 0.083 µM) | 0.03 µg/mL (≈ 0.083 µM) | 0.03 µg/mL (≈ 0.083 µM) | 0.06 µg/mL (≈ 0.166 µM) | – | 0.06 µg/mL (≈ 0.166 µM) | – | 0.03 µg/mL (≈ 0.083 µM) | 32 µg/mL (≈ 88.6 µM) | 32 µg/mL (≈ 88.6 µM) | resistant |
| NCC[C@H](O)C(=O)N[C@@H]1C[C@H](N)[C@@H](O[C@H]2O[C@H](CN)[C@@H](O)[C@H](O)[C@H]2O)[C@H](O)[C@H]1O[C@H]1O[C@H](CO)[C@@H](O)[C@H](N)[C@H]1O [AMK, amikacin] | 2 µg/mL (≈ 3.42 µM) | 2 µg/mL (≈ 3.42 µM) | 2 µg/mL (≈ 3.42 µM) | 1 µg/mL (≈ 1.71 µM) | – | – | – | 2 µg/mL (≈ 3.42 µM) | 1 µg/mL (≈ 1.71 µM) | > 256 µg/mL | > 256 µg/mL | resistant |
| C[C@@H]1O[C@@H]1P(=O)(O)O [FOS, fosfomycin] | 0.5 µg/mL (≈ 3.62 µM) | 0.5 µg/mL (≈ 3.62 µM) | 0.5 µg/mL (≈ 3.62 µM) | 0.25 µg/mL (≈ 1.81 µM) | – | – | – | – | 0.25 µg/mL (≈ 1.81 µM) | 1 µg/mL (≈ 7.24 µM) | > 1020 µg/mL | – |
| CO/N=C(\C(=O)N[C@@H]1C(=O)N2C(C(=O)[O-])=C(C[N+]3(C)CCCC3)CS[C@H]12)c1csc(N)n1 [FEP, cefepime] | 0.06 µg/mL (≈ 0.125 µM) | 32 µg/mL (≈ 66.6 µM) | 32 µg/mL (≈ 66.6 µM) | 0.06 µg/mL (≈ 0.125 µM) | 64 µg/mL (≈ 133 µM) | 4 fold | 2 µg/mL (≈ 4.16 µM) | 16 µg/mL (≈ 33.3 µM) | 0.12 µg/mL (≈ 0.25 µM) | 128 µg/mL (≈ 266 µM) | > 128 µg/mL | – |
| CO/N=C(\C(=O)N[C@@H]1C(=O)N2C(C(=O)O)=C(COC(C)=O)CS[C@H]12)c1csc(N)n1 [CTX, cefotaxime] | 0.06 µg/mL (≈ 0.132 µM) | 32 µg/mL (≈ 70.3 µM) | 16 µg/mL (≈ 35.1 µM) | 0.03 µg/mL (≈ 0.0659 µM) | 128 µg/mL (≈ 281 µM) | 4 fold | 32 µg/mL (≈ 70.3 µM) | 32 µg/mL (≈ 70.3 µM) | 0.06 µg/mL (≈ 0.132 µM) | > 128 µg/mL | > 128 µg/mL | – |
